According to patent US10808128B2, “Compounds as fluorescent probes, synthesis and applications thereof” (priority 2018, dated 2020):
Entries after “also recorded” stand apart in the source; their conditions may differ.

Tests used:
[1] = tested on: mitochondria of U2OS cells; experiment: Effect of CCCP on HC-1 fluorescence (mitochondrial membrane potential); assay type: cell-based, human; conditions: 5 μM CCCP
Protocol: Effect of Carbonyl Cyanide 3-Chloro Phenylhydrazone [CCCP]: Dye-labeled cells were imaged on the Olympus IX83 inverted microscope coupled to a 560 nm laser line connected to a Evolve 512 Delta EMCCD camera. 5 μM CCCP (final concentration) was used for the assay. Different regions were selected on the dish and imaged before the addition of CCCP and after addition at an interval of about 5 minutes for duration of about 15 minutes.

[2] = tested on: primary mouse fibroblasts; experiment: Imaging local order and viscosity of mitochondria during fibroblast activation; assay type: cell-based; conditions: HC-1 250 nM with TMRE 125 nM
Protocol: A study on the use of HC-1 for imaging local order and viscosity of mitochondria and use of said imaging to measure changes in mitochondrial function and cellular state and function was carried out.

[3] = tested on: mitochondria of U2OS cells; experiment: Effect of Monensin on HC-1 stained mitochondria; assay type: cell-based, human; conditions: Monensin 10 µM / 10 μM, 0, 30, 60 minutes
[4] = Effect of pH, ions, serum protein, plasmid DNA and glutathione on HC-1 fluorescence; assay type: physicochemical; conditions: HC-1 2.5 μM
Protocol: 0.1 M buffers of identical ionic strength solution were used for carryout the experiments. For pH 3, 4, 5 and 5.5, acetate buffer was used, for pH 6.2, 6.9 and 7.4, phosphate buffer was used and for pH 8 and 9.2, Tris-HCl buffer was used. The used salts were Sodium Chloride (NaCl), Potassium Chloride (KCl), Magnesium Chloride (MgCl2), Zinc Chloride (ZnCl2), Nickel Chloride (NiCl2) and Ferric Chloride (FeCl3). Final concentration of the cations (except Zn) was 10 mM and prepared in 1× Phosphate Buffer Saline. For Zn (II), saturated aqueous solution was used. Bovine Serum Albumin (BSA), plasmid DNA and glutathione concentration were at 1 mg−ml^−1, 5 μg−ml^−1 and 10 μM respectively. […] Fluorescence measurement was performed after 30 minutes of incubation.

[5] = tested on: live human pluripotent stem cells (hPSCs); experiment: Mitochondrial imaging of live pluripotent stem cells; assay type: cell-based; conditions: 250 nM, 30 minutes, confocal
[6] = UV-Vis and steady state fluorescence of HC-1 in ten solvents; fluorescence quantum yield; assay type: physicochemical; conditions: for Quantum yield: reference Rhodamine B (0.55)
Protocol: UV-Vis measurement was performed in Shimadzu UV-Vis spectrophotometer (U2600) and steady state fluorescence study was performed in Horiba-Yobin (Fluorolog3) fluorescence spectrophotometer. For all the fluorescence measurements, excitation and emission slits were kept constant at 2 nm (except studies on pH dependence: excitation/emission=2/4 nm respectively). Final concentration was 2.5 μM (except for measurement of fluorescence quantum yield [1 μM] and lifetime [25 μM]) for all the spectroscopic studies.
The HC-1 absorption and fluorescence were recorded in ten solvents of varying polarity and viscosity.
An aqueous solution of Rhodamine B was used as reference. Fluorescence (integrated intensities) and absorbance values were obtained and the quantum yield was calculated using the following equation;
φ and φr: Quantum yield of sample and reference (0.55) respectively; A and Ar: Absorbance of sample and reference respectively; L: path length of the cuvette (here is same); N and Nr: refractive index of the solvents containing sample and reference; I and Ir: Integrated intensity of fluorescence emission of sample and reference respectively.

[7] = tested on: mitochondria of live human primary fibroblasts; experiment: Photo-toxicity study during repeat photo-illumination and fast mitochondrial imaging; assay type: cell-based; conditions: for photostability during fast imaging of mitochondria: human primary fibroblasts, fast time lapse (10 sec interval, 300 seconds)
Description: Fast (10 sec interval) time lapse images were acquired for 300 seconds.

[8] = tested on: E14TG2a mouse embryonic stem cells; experiment: Imaging HC-1 stained mitochondria of embryonic stem cells, incl. long term imaging to check cytotoxicity; assay type: cell-based; conditions: E14TG2a mouse ESCs with LIF
Protocol: E14TG2a (mouse embryonic stem cells) were cultured in GMEM supplemented with FBS, Glutamine, Non-essential amino acids, β-mercaptoethanol, Penicilin-streptomycin and depending on culture conditions, with or without […] (LIF). […] Images were acquired on the FV1000 confocal microscope. Imaging set up used in the present example was same as the imaging set up used for colocalization described above.
Confocal (FV1000, Olympus) images were acquired for 12 hours at 3 hours interval.

[9] = tested on: mitochondria of U2OS cells; experiment: Imaging of live cell mitochondria by HC-1 and co-localization assay with MitoTracker Green; assay type: cell-based, human; conditions: confocal
Protocol: For imaging, cells were plated on fibronectin coated (final concentration of 10 μg/ml) glass-bottomed dishes and allowed to attach. […] Cells were then washed twice with DPBS and fresh serum-free media was added.
Co-localization assay of HC-1 using MitoTracker Green: Cells were labeled using both MitoTracker Green and HC-1 dyes (by aforementioned protocol). Confocal images were taken using Olympus FV1000 Confocal microscope (×60 oil immersion objective at 1.6× optical zoom). Excitation parameters used were 488 nm excitation and 500-530 nm emission for MitoTracker Green, and 543 nm excitation and emissions above 560 nm for HCl. Pearson correlation dot plot was constructed using Coloc2 plugin of ImageJ.

[10] = HC-1 fluorescence in surfactant micelles (SDS, TritonX-100); CMC by sigmoidal fitting; assay type: physicochemical; conditions: from HC-1 (2.5 μM) fluorescence intensity versus surfactant concentration
Protocol: Initially 300 mM solution of sodium dodecyl sulfate (SDS) in milli-Q water was prepared. Then, solution of varied concentrations (1-300 mM) by serial dilution was prepared. All the prepared solutions were heated at 70° C. for about 15 minutes and stored at room temperature overnight. Similarly, a stock of 10 mM was prepared for TritonX-100 also. Then solution of different concentration (0.05-4 mM) was prepared by serial dilution.

[11] = Stability of dye stock solution; assay type: physicochemical; conditions: 1 mM in 50% DMSO-water, stored at about 4° C.
Protocol: (§1) Formula I compounds (dyes) are positively charged and can be easily targeted to the mitochondria of the live cells. The dyes are highly specific for functional mitochondria. Localization is confirmed by ‘colocalization’ assays with mitochondria specific commercial dyes and high-resolution microscopy. […] This stock solution was stored at about 4° C.

[12] = tested on: mitochondria of human primary fibroblast cells; experiment: Colocalization of HC-2 with MitoTracker Green; assay type: cell-based; conditions: live human primary fibroblast cells
Protocol: as §1

[13] = tested on: mitochondria of live HEK 293 cells; experiment: Effect of Monensin on HC-2 stained mitochondria; assay type: cell-based, human; conditions: HC-2 250 nM, Monensin 10 μM, 0-90 minutes
[14] = tested on: mitochondria of human embryonic kidney (HEK) cells; experiment: Effect of CCCP on HC-2 fluorescence; assay type: cell-based; conditions: 5 μM CCCP
Protocol: as §1

[15] = HC-1 in Ethylene glycol (13.5 cP)
[16] = HC-1 in Glycerol (9.50 cP as printed)

CN(C)c1ccc(/C=C/C2=[N+](C)c3ccc4ccccc4c3C2(C)C)cc1.[I-] [HC-1, (E)-2-(4-(Dimethylamino)styryl)-1,1,3-trimethyl-1H-benzo[e]indol-3-ium iodide]
effect of CCCP on HC-1 fluorescence [1]: rapid and complete loss of HC-1 fluorescence | change of mitochondrial local ordering in activated fibroblasts [2]: increase in local ordering of the mitochondria | effect of Monensin on HC-1 fluorescence in mitochondria [3]: significant increase in HC-1 fluorescence; also recorded: sensitive to changes in mitochondrial ordering | effect of pH on HC-1 emission ([4]; 0.1 M buffers pH 3-9.2, small changes at ~pH 3 or ~pH 9): little or no effect | effect of metal ions, serum proteins, plasmid DNA and glutathione (GSH) on HC-1 emission ([4]; 30 minutes incubation): did not significantly affect | staining of mitochondria of live hPSCs [5]: uniform staining of the mitochondria | λabs ([6]; HC-1 in Acetone (0.32 cP)): 553 nm | λem ([6]; HC-1 in Acetone (0.32 cP)): 606 nm | Quantum yield ([6]; HC-1 in Acetone (0.32 cP)): 0.014 ± 0.0002 | λabs ([6]; HC-1 in Acetonitrile (0.37 cP)): 577 nm | λem ([6]; HC-1 in Acetonitrile (0.37 cP)): 613 nm | Quantum yield ([6]; HC-1 in Acetonitrile (0.37 cP)): 0.028 ± 0.0002 | λabs ([6]; HC-1 in Benzene (0.6 cP)): 548 nm | λem ([6]; HC-1 in Benzene (0.6 cP)): 608 nm | Quantum yield ([6]; HC-1 in Benzene (0.6 cP)): 0.014 ± 0.0001 | λem ([6]; HC-1 in DCM (0.43 cP)): 608 nm | Quantum yield ([6]; HC-1 in DCM (0.43 cP)): 0.033 ± 0.0005 | λabs ([6]; HC-1 in DMF (0.85 cP)): 553 nm | λem ([6]; HC-1 in DMF (0.85 cP)): 610 nm | Quantum yield ([6]; HC-1 in DMF (0.85 cP)): 0.028 ± 0.0003 | λabs ([6]; HC-1 in Ethanol (1.2 cP)): 556 nm | λem ([6]; HC-1 in Ethanol (1.2 cP)): 607 nm | Quantum yield ([6]; HC-1 in Ethanol (1.2 cP)): 0.024 ± 0.0002 | λabs [6, 15]: 562 nm | λem [6, 15]: 610 nm | Quantum yield [6, 15]: 0.087 ± 0.0004 | λabs [6, 16]: 564 nm | λem [6, 16]: 610 nm | Quantum yield [6, 16]: 0.477 ± 0.0005 | λabs ([6]; HC-1 in Methanol (0.6 cP)): 552 nm | λem ([6]; HC-1 in Methanol (0.6 cP)): 603 nm | Quantum yield ([6]; HC-1 in Methanol (0.6 cP)): 0.018 ± 0.0002 | λabs ([6]; HC-1 in Water (1 cP)): 542 nm | λem ([6]; HC-1 in Water (1 cP)): 605 nm | Quantum yield ([6]; HC-1 in Water (1 cP)): 0.034 ± 0.001 | photostability during fast imaging of mitochondria [7]: highly photo-stable; also recorded: significantly more photostable | mitochondrial staining of embryonic stem cells [8]: bright staining of the mitochondrial structures | 2D intensity correlation with MitoTracker Green (Pearson R) [9]: 0.95

CCCCCCCCCCCCOS(=O)(=O)[O-].[Na+] [SDS, sodium dodecyl sulphate]
critical micellar concentration (CMC) [10]: ~7.5 mM

TritonX-100
critical micellar concentration (CMC) [10]: ~1 mM

tetramethylrhodamine, ethyl ester [TMRE, reference compound]
photo-toxicity during repeat photo-illumination [7]: irradiation induced depolarization of mitochondrial membrane | photostability during fast imaging of mitochondria [7]: photobleaches

CN(C)c1ccc(/C=C/C=C/C2=[N+](C)c3ccc4ccccc4c3C2(C)C)cc1.[I-] [HC-2, 2-((1E,3E)-4-(4-(Dimethylamino)phenyl)buta-1,3-dien-1-yl)-1,1,3-trimethyl-1H-benzo[e]indol-3-ium iodide]
stability of stock solution [11]: stable for one year | 2D intensity correlation with MitoTracker Green (Pearson R) [12]: 0.91 | effect of Monensin on HC-2 fluorescence in mitochondria [13]: time-dependent increase in fluorescence intensity; also recorded: Time dependent increase in fluorescence intensity | staining of mitochondria of live hPSCs [5]: uniform staining of the mitochondria | effect of CCCP on HC-2 fluorescence [14]: loss of HC-2 fluorescence | photostability during fast imaging of mitochondria [7]: highly photo-stable
